Where “and” joins values, the source holds several entries; their conditions need not be identical. Equal entries are not always repeated. Inconclusive results and toxic doses are left out.

The experiment deals with L1210 leukemia ip in BDF1 mice, survival T/C. The experiment in a line: NCI In Vivo Anticancer Drug Screen. Data for tumor model L1210 Leukemia (intraperitoneal) in B6D2F1 (BDF1) mice. To be noted: endpoint: mean survival time, higher = longer survival. The essentials:
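Each compound was tested against a transplantable tumor grown in mice. The endpoint was survival, with treated animals benchmarked against vehicle controls as a simple ratio.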

Setting [1] is: dose: 100.0 mg/kg/injection, schedule: Q01DX001 (ip), vehicle: saline.
Where [2] appears, read: dose: 400.0 mg/kg/injection, schedule: Q01DX001 (ip), vehicle: saline.
Where [3] appears, read: dose: 200.0 mg/kg/injection, schedule: Q01DX001 (ip), vehicle: saline.
Where [4] appears, read: dose: 100.0 mg/kg/injection, schedule: Q01DX009 (ip), vehicle: Klucel (hydroxypropylcellulose) (HPC).
[5] abbreviates: dose: 200.0 mg/kg/injection, schedule: Q01DX009 (ip), vehicle: Klucel (hydroxypropylcellulose) (HPC).
The mark [6] stands for this setting: dose: 400.0 mg/kg/injection, schedule: Q01DX009 (ip), vehicle: Klucel (hydroxypropylcellulose) (HPC).
Where [7] appears, read: dose: 100.0 mg/kg/injection, schedule: Q04DX003 (ip), vehicle: saline with Tween-80.
The mark [8] stands for this setting: dose: 200.0 mg/kg/injection, schedule: Q04DX003 (ip), vehicle: saline with Tween-80.
Setting [9] is: dose: 400.0 mg/kg/injection, schedule: Q04DX003 (ip), vehicle: saline with Tween-80.
[10] abbreviates: dose: 10.0 mg/kg/injection, schedule: Q01DX001 (ip), vehicle: carboxymethylcellulose (CMC).
Where [11] appears, read: dose: 100.0 mg/kg/injection, schedule: Q01DX009 (ip), vehicle: saline.
The mark [12] stands for this setting: dose: 100.0 mg/kg/injection, schedule: Q04DX003 (ip), vehicle: saline.
[13] abbreviates: dose: 200.0 mg/kg/injection, schedule: Q01DX009 (ip), vehicle: saline.
The mark [14] stands for this setting: dose: 200.0 mg/kg/injection, schedule: Q04DX003 (ip), vehicle: saline.
The mark [15] stands for this setting: dose: 400.0 mg/kg/injection, schedule: Q04DX003 (ip), vehicle: saline.
Where [16] appears, read: dose: 25.0 mg/kg/injection, schedule: Q01DX009 (ip), vehicle: saline.
The mark [17] stands for this setting: dose: 50.0 mg/kg/injection, schedule: Q01DX009 (ip), vehicle: saline.

On to `CCCCCC(/C=N/NC(=O)c1cccc2ccccc12)=C\c1ccccc1`, for which the T/C reads like this: under setting [1], 94 % of control; under setting [2], 97 % of control.
`COc1cc(C=Nc2ccc(-c3nc(C)sc3C)cc2)ccc1N(CCCl)CCCl`: the T/C by setting is: (dose: 11.0 mg/kg/injection, schedule: Q01DX009 (ip), vehicle: carboxymethylcellulose (CMC)) 200 % of control; (dose: 11.1 mg/kg/injection, schedule: Q01DX001 (ip), vehicle: carboxymethylcellulose (CMC)) 118 % of control; (dose: 16.6 mg/kg/injection, schedule: Q01DX009 (ip), vehicle: carboxymethylcellulose (CMC)) 90 % of control; (dose: 25.0 mg/kg/injection, schedule: Q01DX001 (ip), vehicle: carboxymethylcellulose (CMC)) 202 % of control.
As for `CCCCCCCCCCCCCCCCCC(=O)OCCOCCOCCOCCOCCOCCOCCOCCOCCO`, the T/C is, setting by setting: under setting [1], 100 % of control; under setting [3], 94 % of control; under setting [2], 97 % of control.
Turning to `CCO/C=C1\SC(=S)N(CCc2ccc(OC)c(OC)c2)C1=O`, the T/C under setting [4] was 94 % of control; the T/C (dose: 100.0 mg/kg/injection, schedule: Q04DX003 (ip), vehicle: Klucel (hydroxypropylcellulose) (HPC)) is 102 % of control; the T/C under setting [5] is 93 % of control; the T/C (dose: 200.0 mg/kg/injection, schedule: Q04DX003 (ip), vehicle: Klucel (hydroxypropylcellulose) (HPC)) is 102 % of control; the T/C under setting [6] was 103 % of control; the T/C (dose: 400.0 mg/kg/injection, schedule: Q04DX003 (ip), vehicle: Klucel (hydroxypropylcellulose) (HPC)) was 102 % of control.
As to `ClCCN(CCCl)c1ccc(-n2cnc3c(Cl)ncnc32)cc1`, the T/C (dose: 32.0 mg/kg/injection, schedule: Q01DX015 (ip), vehicle: carboxymethylcellulose (CMC)) was 96 % of control; the T/C (dose: 64.0 mg/kg/injection, schedule: Q01DX015 (ip), vehicle: carboxymethylcellulose (CMC)) is 96 % of control; the T/C (dose: 128.0 mg/kg/injection, schedule: Q01DX015 (ip), vehicle: carboxymethylcellulose (CMC)) was 97 % of control; the T/C (dose: 256.0 mg/kg/injection, schedule: Q01DX015 (ip), vehicle: carboxymethylcellulose (CMC)) was 105 % of control.
In the case of `O=C(Nc1cccc(C(F)(F)F)c1)c1ccco1`, the T/C was 93 % of control under setting [4]; 106 % of control (dose: 100.0 mg/kg/injection, schedule: Q04DX002 (ip), vehicle: Klucel (hydroxypropylcellulose) (HPC)); 96 % of control under setting [5]; 95 % of control (dose: 200.0 mg/kg/injection, schedule: Q04DX002 (ip), vehicle: Klucel (hydroxypropylcellulose) (HPC)); 109 % of control under setting [6]; 104 % of control (dose: 400.0 mg/kg/injection, schedule: Q04DX002 (ip), vehicle: Klucel (hydroxypropylcellulose) (HPC)).
Take `COC(=O)c1ccccc1NC(=S)NC(=O)c1ccc(Cl)cc1Cl`: the T/C is 92 % of control (dose: 100.0 mg/kg/injection, schedule: Q01DX001 (ip), vehicle: saline with Tween-80); 97 % of control and 102 % of control (dose: 100.0 mg/kg/injection, schedule: Q01DX009 (ip), vehicle: saline with Tween-80); 101 % of control and 88 % of control (dose: 100.0 mg/kg/injection, schedule: Q04DX002 (ip), vehicle: saline with Tween-80); 87 % of control under setting [7]; 92 % of control (dose: 200.0 mg/kg/injection, schedule: Q01DX001 (ip), vehicle: saline with Tween-80); 95 % of control and 97 % of control (dose: 200.0 mg/kg/injection, schedule: Q01DX009 (ip), vehicle: saline with Tween-80). The T/C was 103 % of control and 92 % of control (dose: 200.0 mg/kg/injection, schedule: Q04DX002 (ip), vehicle: saline with Tween-80); 90 % of control under setting [8]; 89 % of control (dose: 400.0 mg/kg/injection, schedule: Q01DX001 (ip), vehicle: saline with Tween-80); 97 % of control and 98 % of control (dose: 400.0 mg/kg/injection, schedule: Q01DX009 (ip), vehicle: saline with Tween-80); 106 % of control and 88 % of control (dose: 400.0 mg/kg/injection, schedule: Q04DX002 (ip), vehicle: saline with Tween-80); 92 % of control under setting [9].
As to `Nc1ncnc2c1ncn2C1OC(CO)C(O)C(O)C1O` (stereo not given), the T/C under setting [1] was 103 % of control [middle of 4 runs], the T/C under setting [3] is 100 % of control [middle of 4 runs] and the T/C under setting [2] is 100 % of control [middle of 4 runs].
On to `O=C(O)c1ccccc1/C=N/N1C(=O)CSC1=S`, for which the T/C (dose: 2.5 mg/kg/injection, schedule: Q01DX001 (ip), vehicle: carboxymethylcellulose (CMC)) is 97 % of control; the T/C (dose: 5.0 mg/kg/injection, schedule: Q01DX001 (ip), vehicle: carboxymethylcellulose (CMC)) was 97 % of control; the T/C under setting [10] is 109 % of control.
Take `CCCCCC[C@@H](O)C/C=C\CCCCCCCC(=O)OC`: the T/C is 97 % of control under setting [1], 97 % of control under setting [3] and 103 % of control under setting [2].
As to `N#Cc1ccc[n+](CCc2c[nH]c3ccccc23)c1`, the T/C (dose: 75.0 mg/kg/injection, schedule: Q01DX001 (ip), vehicle: saline) is 102 % of control.
As for `c1ccc(CC(Cc2ccccc2)=[N+]2CCCC2)cc1`, the T/C reads like this: under setting [11], 91 % of control; under setting [12], 104 % of control; under setting [13], 92 % of control; under setting [14], 98 % of control; (dose: 400.0 mg/kg/injection, schedule: Q01DX009 (ip), vehicle: saline) 101 % of control; under setting [15], 105 % of control.
In the case of `CC1(CS(=O)(=O)c2ccccc2)C(=O)C2CCC1C2` (stereo not given), the T/C reads like this: under setting [1], 90 % of control; under setting [12], 94 % of control; under setting [3], 98 % of control; under setting [14], 89 % of control; under setting [2], 88 % of control; under setting [15], 98 % of control.
For the molecule `CN(C(=O)/C=C/C(=O)O)c1ccccc1`, the T/C runs as follows: under setting [16], 104 % of control; under setting [17], 110 % of control; (dose: 50.0 mg/kg/injection, schedule: Q04DX003 (ip), vehicle: saline with Tween-80) 98 % of control; under setting [11], 105 % of control; under setting [7], 101 % of control; under setting [13], 96 % of control. In addition, the T/C under setting [8] was 95 % of control and the T/C under setting [9] is 97 % of control.
In the case of `NC(N)=NNC(=O)C(=O)O`, the T/C is 95 % of control under setting [7], 91 % of control under setting [8] and 93 % of control under setting [9].
Regarding `CC(=O)c1ccc(N2CCNCC2)cc1`, the T/C reads like this: under setting [10], 115 % of control; (dose: 20.0 mg/kg/injection, schedule: Q01DX001 (ip), vehicle: carboxymethylcellulose (CMC)) 107 % of control; (dose: 40.0 mg/kg/injection, schedule: Q01DX001 (ip), vehicle: carboxymethylcellulose (CMC)) 109 % of control.
Turning to `CNCCCN1c2ccccc2CCc2ccccc21`, the T/C runs as follows: (dose: 3.12 mg/kg/injection, schedule: Q01DX009 (ip), vehicle: saline) 123 % of control; (dose: 5.0 mg/kg/injection, schedule: Q01DX001 (ip), vehicle: saline) 105 % of control; (dose: 6.25 mg/kg/injection, schedule: Q01DX009 (ip), vehicle: saline) 115 % of control; (dose: 10.0 mg/kg/injection, schedule: Q01DX001 (ip), vehicle: saline) 100 % of control; (dose: 12.5 mg/kg/injection, schedule: Q01DX009 (ip), vehicle: saline) 115 % of control; (dose: 20.0 mg/kg/injection, schedule: Q01DX001 (ip), vehicle: saline) 111 % of control. Further, the T/C by setting is: under setting [16], 110 % of control; (dose: 25.0 mg/kg/injection, schedule: Q04DX003 (ip), vehicle: saline) 101 % of control; (dose: 40.0 mg/kg/injection, schedule: Q01DX001 (ip), vehicle: saline) 95 % of control; under setting [17], 106 % of control; (dose: 50.0 mg/kg/injection, schedule: Q04DX003 (ip), vehicle: saline) 97 % of control; (dose: 80.0 mg/kg/injection, schedule: Q01DX001 (ip), vehicle: saline) 92 % of control.

These data come from PubChem BioAssay AID248 (DTP/NCI, 2004).
